Assay results reported in patent publication US20060013804A1, “Modulation of stem cell differentiation by modulation of caspase-3 activity” (Ottawa Health Research Institute, priority 2002, published 2006).
Where a SMILES comes first, the peptide text is derived from it. The star is where a group is joined. Cbz = O=C(OCc1ccccc1)*; CH2F = FC*

Assays:
C2C12 myoblasts [1] = assay: C2C12 myoblast differentiation in low serum media with caspase inhibitors (MF20 staining, immunoblot of myogenic markers); format: cell-based, mouse; conditions: 20 μM inhibitor
Procedure: (§1) Myoblast culture. C2C12 cell (mouse skeletal muscle myoblast) cultures were grown and maintained in DMEM containing 10% FBS with 50 units/ml penicillin and 50 μg/ml streptomycin (Gibco). Differentiation was induced by incubating cultures in DMEM containing only a low serum concentration (2% horse serum). Caspase activity was measured using a Caspase-3 and Caspase-8 Fluorometric Assay Kit (Pharmingen). […] Control cells were treated with an equivalent amount of vehicle (DMSO). Primary myoblast cells were derived from skeletal muscles of the hind- and fore-limbs from 1-2 day old C57BL/6 wild-type, caspase-3 heterozygous and caspase-3 null mice (Frasch, S. C., et al., (1998) J. Biol. Chem. 273, 8389-8397; Kuida, K., et al., (1996) Nature 384, 368-372) (n=5 for each genotype) as described (Cregan, S. P. et al., (1999) J. Neuro. 19, 7860-7869.). To induce differentiation, primary myoblast cultures were incubated in DMEM containing 5% horse serum.
Protein isolation, immunoblot analyses and immunocytochemistry. Cells from C2C12 and primary myoblast cultures were washed with ice-cold PBS and lysed on ice for 45 minutes in modified-RIPA buffer containing 20 mM NaF, 5 mM Na3VO4 and 10 μg/ml each of aprotinin, leupeptin, pepstatin and PMSF. Total protein was measured using the BCA protein assay (Pierce). Immunoblot analyses were performed as described (Creasy, C. L., & Chernoff, J. (1995) J. Biol. Chem. 270, 21695-21700) using antibodies for MST1, MKK6, p38γ, and p38α (Upstate), p38 and MEF2C (Cell Signaling Technologies), myogenin F5D and myosin heavy chain MF20 mAb (Developmental Hybridoma Bank), and active caspase-3 (Biovision).
C2C12 myoblasts were fixed and stained with anti-MF20 as previously described (Cregan, et al., (1999) J. Neuro. 19, 7860-7869). Primary myoblast cultures were fixed in 4% paraformaldehyde, rinsed three times in PBS containing 0.01% Triton X-100 and stained as above. For both C2C12 and primary myoblast cultures, nuclei were detected by incubating cells for 10 min with 4,6-diamidino-2-phenylindole diluted 1:10000 in PBS.
Cells were fixed after 0, 2 and 4 days of differentiation and stained with the myosin heavy chain antibody MF20. […] In contrast, differentiation was more evident in cells that were incubated with caspase-8 inhibitor, z-LETD.fmk (FIG. 2B bottom panel, C).

[2] = system: clonally-derived CD1 neurospheres; assay: Neurite extensions / morphology of differentiating neurospheres; format: cell-based, mouse; conditions: differentiation media up to 5 d, 2.0 μM inhibitor, vs DMSO
Procedure: Neurospheres were sub-cultured no more than once per collection. The differentiation of neurospheres was initated by plating spheres on poly-L-ornithine coated plates in NeuroCult Differentiation Medium in the absence of bFGF, as per manufacturer's instructions. […] All cultures received fresh media and inhibitor every 24 h for the duration of the experiment. Neurospheres from caspase 3 null embryos (Fernando, P., et al., (2002) Proc Natl Acad Sci USA 99, 11025-11030) were cultured as described above.
Immunocytochemistry: Neurospheres were collected at selected time points, fixed in 4% paraformaldehyde and prepared for immunostaining as previously described (Fernando, P., et al., (2002) Proc Natl Acad Sci USA 99, 11025-11030)). The primary antibody concentrations for anti-nestin, -GFAP, -MBP and -active caspase 3 (BioVision, USA) were titrated on wildtype CD1 neurospheres prior to their experimental use. These antibodies were visualized by counterstaining with either FITC or Cy3 conjugated secondary antibodies (Chemicon USA). Nuclei were localized with 4′,6-Diamidino-2 phenylindole (DAPI) (Sigma, USA). Cells were visualized using either an Axiovert 100 for transmission microscopy or Axioplan 2 for fluorescent microscopy (Zeiss, Germany) at selected magnifications. Captured images were processed using AxioVision Viewer 3.0 software.
Quantitation of Neurite Extensions: Neurites from differentiating neurospheres were estimated from a total of 6-8 neurospheres per condition over three independent experiments. To quantitated neuritis, the average diameter of an individual neurosphere was estimated from the vertical and horizontal distance. The number of extensions leaving the neurosphere body were then counted and an ratio of neurosphere extensions:average neurosphere diameter was calculated for each. All measurements including neurosphere diameter were evaluated using Scion Image.

[3] = system: caspase-3-/- primary myoblasts; assay: Transfection of MST1 constructs into caspase-3-/- primary myoblasts (rescue of myogenesis); format: cell-based, mouse; conditions: transient transfection, primary caspase-3-/- myoblasts
Procedure: as §1
Transfection Assays. The complete open reading frame of the human MST1, [Genbank Accession No. gi|1117790] obtained from a clone bank collection (Stratagene) was inserted into the expression vector pcDNA3.1 Myc/His (Invitrogen). A constitutively active MST1 (MST1-act) was prepared as previously described (Megeney, L. A., et al., (1996) Genes Dev 10, 1173-1183). The integrity of both MST1 and MST1-act were confirmed by sequencing. The kinase activity of these protein products were verified by transient transfection into COS1 cells followed by immunoprecipitation and kinase analysis using Histone-H1 as the target substrate (see below). Transfections with MST1 and MST1-act into both COS1 and primary myoblasts were performed using Lipofectamine Plus (Gibco) as directed in the manufacturer's instructions.
To delineate the effect of MST1 on myogenesis, wild-type MST1, an activated MST1 (aa 1-330, MST1-act) or plasmid alone was transiently transfected into primary myoblasts derived from caspase-3^−/− mice. The activity of these constructs was verified by Histone H1 targeted kinase analysis of MST1 from transiently transfected COS1 cells (FIG. 5A).

C2C12 myoblasts [4] = assay: Transfection of recombinant active caspase-3 protein into subconfluent C2C12 myoblasts in growth media; format: cell-based, mouse
Procedure: To further test a cell-autonomous role of caspase-3 in inducing myoblast differentiation, active caspase-3 protein was transfected into a subconfluent population of C2C12 myoblasts maintained in growth media. Sub-confluent C2C12 myoblasts were transfected with […] of recombinant active caspase-3 and examined after 12 h for the presence of myosin heavy chain (anti-MF20) detected using a FITC conjugated secondary antibody. A confluent population of cells were incubated in low serum media (differentiation media) to induce myoblast differentiation and examined after 12 h. In all cells examined, nuclei were localised with DAPI staining. The results are shown in FIG. 3, which is representative of 7 trials.

[5] = biological target: T1, human MST1 (Mammalian Sterile Twenty-like kinase), full length, in vitro translated from MST1-pcDNA3.1 Myc/His
T1 chain: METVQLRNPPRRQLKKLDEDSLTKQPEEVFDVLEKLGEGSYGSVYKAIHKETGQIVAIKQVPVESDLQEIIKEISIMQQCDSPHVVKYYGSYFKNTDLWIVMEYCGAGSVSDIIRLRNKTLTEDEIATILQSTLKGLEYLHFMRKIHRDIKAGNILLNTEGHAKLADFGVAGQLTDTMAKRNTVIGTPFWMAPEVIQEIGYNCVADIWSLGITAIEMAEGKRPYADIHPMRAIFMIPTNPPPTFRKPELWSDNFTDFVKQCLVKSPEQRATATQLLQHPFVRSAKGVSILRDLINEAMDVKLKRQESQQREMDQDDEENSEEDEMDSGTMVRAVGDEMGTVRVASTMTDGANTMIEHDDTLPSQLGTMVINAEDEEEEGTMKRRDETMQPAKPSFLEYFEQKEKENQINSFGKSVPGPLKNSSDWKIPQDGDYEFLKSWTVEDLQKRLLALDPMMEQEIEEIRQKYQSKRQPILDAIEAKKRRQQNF

Which results are given for COC(=O)CC[C@H](NC(=O)[C@H](CC(C)C)NC(=O)OCc1ccccc1)C(=O)N[C@H](C(=O)N[C@@H](CC(=O)OC)C(=O)CF)[C@@H](C)O [z-LETD.fmk] (Cbz-LE(OMe)TD(OMe)-CH2F)?
myotube formation (C2C12 myoblasts [1]; C2C12, low serum media, MF20 staining, up to 4 days, vs DMSO): minor attenuation of myotube formation; degree of differentiation (C2C12 myoblasts [1]; C2C12, low serum, vs vehicle treated cells): remained below that observed in vehicle treated cells

Which results are given for CC[C@H](C)[C@H](NC(=O)OCc1ccccc1)C(=O)N[C@@H](CCC(=O)OC)C(=O)N[C@H](C(=O)N[C@@H](CC(=O)OC)C(=O)CF)[C@@H](C)O [z-IETD.fmk] (Cbz-IE(OMe)TD(OMe)-CH2F)?
neurite extensions / morphological changes [2]: did not affect morphological changes in neurosphere differentiation; neurite extensions / morphological changes ([2]; listed as IETD): extensive neurite networking present

COC(=O)C[C@H](NC(=O)[C@H](C)NC(=O)[C@@H](NC(=O)OCc1ccccc1)C(C)C)C(=O)CF [z-VAD.fmk] (Cbz-Val-Ala-Asp(OMe)-CH2F) was tested. Which “neurite extensions / morphological changes” value [2] did it give?
The value was “gave results similar to caspase 3 inhibition”.

B1: wild-type MST1: complete open reading frame of human MST1 in expression vector pcDNA3.1 Myc/His, transfected (protein)
chain: T1 chain
With B1 as the molecule, how does the “myotube formation in caspase-3-/- myoblasts” value [3] read?
The value was “remained as mono-nucleated myoblasts”.

B2: caspase-3 (endogenous, in lysates or cultures of mouse C2C12 myoblasts and mouse CD1 neurospheres) (protein)
chain: SGIYLDSSYKMDYPEMGICIIINNKNFHKSTGMSSRSGTDVDAANLRETFMGLKYQVRNKNDLTREDILELMDSVSKEDHSKRSSFVCVILSHGDEGVIYGTNGPVELKKLTSFFRGDYCRSLTGKPKLFIIQACRGTELDCGIETDSGTDEEMACQKIPVEADFLYAYSTAPGYYSWRNSKDGSWFIQSLCSMLKLYAHKLEFMHILTRVNRKVATEFESFSLDSTFHAKKQIPCIVSMLTKELYFYH
What does the source list for B2?
transfected cells undergoing differentiation (C2C12 myoblasts [4]; C2C12 in growth media, 20 µg protein, 12 h, myosin heavy chain immunodetection, n=4): > 95%; morphologic features of apoptosis (C2C12 myoblasts [4]; transfected C2C12 expressing myosin heavy chain): did not display any morphologic features normally attributed to apoptosis; proteolytic cleavage of [35S]-methionine labelled MST1 by C2C12 lysates (SDS-PAGE, autoradiography) [5]: the lower 36 kDa MST1 fragment was not apparent in samples where caspase-3 activity was inhibited
